Target: SIK2 (Homo sapiens (Human), UniProt Q9H0K1)
Assay: SIK2 Enzymatic Assay Version 2 (High ATP)
Assay type: biochemical
Settings: 3 mM ATP and 200 μM HDAC5tide final, ADP-Glo Max luminescence
Method in brief: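 Luminescent ADP-Glo Max read-out: depletion reagent 2 h, then detection reagent 1 h. Before the reaction, compounds were incubated 30 min with enzyme added at 6 nM (twice final concentration), with all steps at room temperature.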

Chain of SIK2 (Q9H0K1 whole entry, species assumed): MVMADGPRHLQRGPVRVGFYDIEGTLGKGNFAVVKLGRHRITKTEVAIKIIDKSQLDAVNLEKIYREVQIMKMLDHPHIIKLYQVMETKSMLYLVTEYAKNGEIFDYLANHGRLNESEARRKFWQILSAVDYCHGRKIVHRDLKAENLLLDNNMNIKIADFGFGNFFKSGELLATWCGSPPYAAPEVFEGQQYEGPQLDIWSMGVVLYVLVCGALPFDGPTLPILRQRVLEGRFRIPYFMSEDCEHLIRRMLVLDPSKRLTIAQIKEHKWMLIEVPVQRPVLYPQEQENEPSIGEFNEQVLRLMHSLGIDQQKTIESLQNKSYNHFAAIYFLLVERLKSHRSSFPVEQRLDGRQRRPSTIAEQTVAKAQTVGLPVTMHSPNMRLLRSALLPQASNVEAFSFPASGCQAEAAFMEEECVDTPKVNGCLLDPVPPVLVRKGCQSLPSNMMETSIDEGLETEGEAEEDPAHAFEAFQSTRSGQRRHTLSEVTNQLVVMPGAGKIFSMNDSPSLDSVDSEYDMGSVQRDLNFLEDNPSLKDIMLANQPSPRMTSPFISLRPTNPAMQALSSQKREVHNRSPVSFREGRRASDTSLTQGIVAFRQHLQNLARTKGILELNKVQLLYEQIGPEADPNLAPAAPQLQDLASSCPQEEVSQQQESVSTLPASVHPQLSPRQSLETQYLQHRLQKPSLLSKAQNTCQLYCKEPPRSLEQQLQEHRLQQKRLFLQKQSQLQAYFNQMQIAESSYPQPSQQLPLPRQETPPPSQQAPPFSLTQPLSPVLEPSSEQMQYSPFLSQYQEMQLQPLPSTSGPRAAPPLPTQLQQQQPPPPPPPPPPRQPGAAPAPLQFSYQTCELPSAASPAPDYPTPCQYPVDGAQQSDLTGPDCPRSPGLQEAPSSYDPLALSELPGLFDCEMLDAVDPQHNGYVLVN

| Compound | IC50 [nM] |
| --- | --- |
| Cn1ncc(CO[C@@H]2CNC[C@H]2F)c1-c1ccn2nc(NC(=O)C3CC3)cc2c1 [Example 466, N-[5-[4-[[(3R,4R)-4-fluoropyrrolidin-3-yl]oxymethyl]-2-methyl-pyrazol-3-yl]pyrazolo[1,5-a]pyridin-2-yl]cyclopropanecarboxamide] | 80.7 |
| CN1CC[C@H](Oc2cnn(C)c2-c2ccn3nc(Nc4cc5ccccc5nn4)cc3c2)C1 [Example 342, N-[5-[2-methyl-4-[(3S)-1-methylpyrrolidin-3-yl]oxy-pyrazol-3-yl]pyrazolo[1,5-a]pyridin-2-yl]cinnolin-3-amine] | 68.8 |
| CCN1CCC[C@H]1COc1cnn(C)c1-c1ccn2nc(NC(=O)C3CC3)cc2c1 [Example 420, N-[5-[4-[[(2S)-1-ethylpyrrolidin-2-yl]methoxy]-2-methyl-pyrazol-3-yl]pyrazolo[1,5-a]pyridin-2-yl]cyclopropanecarboxamide] | 171 |
| [2H]C([2H])([2H])N1CC[C@H](Oc2noc(C)c2-c2ccn3nc(NC(=O)C4CC4)cc3c2)C1 [Example 384, N-[5-[5-methyl-3-[(3S)-1-(trideuteriomethyl)pyrrolidin-3-yl]oxy-isoxazol-4-yl]pyrazolo[1,5-a]pyridin-2-yl]cyclopropanecarboxamide] | 161 |
| Cc1cc(Nc2cc3cc(-c4c(OC[C@H]5OCC[C@@H]5O)cnn4C(F)F)ccn3n2)nc(C)n1 [Example 99, (2R,3S)-2-[[1-(difluoromethyl)-5-[2-[(2,6-dimethylpyrimidin-4-yl)amino]pyrazolo[1,5-a]pyridin-5-yl]pyrazol-4-yl]oxymethyl]tetrahydrofuran-3-ol] | 10.9 |
| Cn1ncc(OC[C@@H](O)C(F)(F)F)c1-c1ccn2nc(NC(=O)C3CC3)cc2c1 (single isomer, unassigned) [Example 401, (*R)—N-[5-[2-methyl-4-(3,3,3-trifluoro-2-hydroxy-propoxy)pyrazol-3-yl]pyrazolo[1,5-a]pyridin-2-yl]cyclopropanecarboxamide] | 107 |
| CN1CC[C@H](Oc2cnn(C)c2-c2ccn3nc(Nc4cnc(C(F)(F)F)cn4)cc3c2)C1 [Example 453, 5-[2-methyl-4-[(3S)-1-methylpyrrolidin-3-yl]oxy-pyrazol-3-yl]-N-[5-(trifluoromethyl)pyrazin-2-yl]pyrazolo[1,5-a]pyridin-2-amine] | 162 |
| Cc1ccc(Nc2cc3cc(-c4c(OC[C@H]5CCN5C)cnn4C)ccn3n2)nn1 [Example 39, 5-[2-methyl-4-[[(2R)-1-methylazetidin-2-yl]methoxy]pyrazol-3-yl]-N-(6-methylpyridazin-3-yl)pyrazolo[1,5-a]pyridin-2-amine] | 3.4 |
| CCN1CC[C@@H]1COc1cnn(C)c1-c1ccn2nc(Nc3cnc(OC)cn3)cc2c1 [Example 180, 5-[4-[[(2R)-1-ethylazetidin-2-yl]methoxy]-2-methyl-pyrazol-3-yl]-N-(5-methoxypyrazin-2-yl)pyrazolo[1,5-a]pyridin-2-amine] | 2.1 |
| Cc1cc(Nc2cc3cc(-c4c(CO[C@@H]5CN(C)C[C@H]5C)cnn4C)ccn3n2)nc(C)n1 (racemic) [Example 364, Rac-N-(2,6-dimethylpyrimidin-4-yl)-5-[4-[(1,4-dimethylpyrrolidin-3-yl)oxymethyl]-2-methyl-pyrazol-3-yl]pyrazolo[1,5-a]pyridin-2-amine] | 2.4 |
| Cc1onc(O[C@@H]2CCNC2)c1-c1ccn2nc(NC(=O)C3CC3)cc2c1 [Example 74, N-[5-[5-methyl-3-[(3R)-pyrrolidin-3-yl]oxy-isoxazol-4-yl]pyrazolo[1,5-a]pyridin-2-yl]cyclopropanecarboxamide] | 144 |
| CC(C)N1CC[C@H]1COc1cnn(C)c1-c1ccn2nc(NC(=O)C3CC3)cc2c1 [Example 48, N-[5-[4-[[(2S)-1-isopropylazetidin-2-yl]methoxy]-2-methyl-pyrazol-3-yl]pyrazolo[1,5-a]pyridin-2-yl]cyclopropanecarboxamide] | 269 |
| Cc1cc(Nc2cc3cc(-c4c(OC[C@@H](O)C5CCC5)cnn4C)ccn3n2)nc(C)n1 [Example 302, (S)-1-cyclobutyl-2-[5-[2-[(2,6-dimethylpyrimidin-4-yl)amino]pyrazolo[1,5-a]pyridin-5-yl]-1-methyl-pyrazol-4-yl]oxy-ethanol] | 28.3 |
| Cc1cc(Nc2cc3cc(-c4c(O[C@H]5CCN(C)C5)cnn4C)ccn3n2)nnc1C [Example 272, N-(5,6-dimethylpyridazin-3-yl)-5-[2-methyl-4-[(3S)-1-methylpyrrolidin-3-yl]oxy-pyrazol-3-yl]pyrazolo[1,5-a]pyridin-2-amine] | 43.5 |
| Cc1ncc(Nc2cc3cc(-c4c(O[C@H]5CCN(C)C5)cnn4C)ccn3n2)nc1C [Example 349, N-(5,6-dimethylpyrazin-2-yl)-5-[2-methyl-4-[(3S)-1-methylpyrrolidin-3-yl]oxy-pyrazol-3-yl]pyrazolo[1,5-a]pyridin-2-amine] | 55.9 |
| CN1CC[C@@H]1COc1cnn(C)c1-c1ccn2nc(Nc3cn(C)nn3)cc2c1 [Example 124, 5-[2-methyl-4-[[(2R)-1-methylazetidin-2-yl]methoxy]pyrazol-3-yl]-N-(1-methyltriazol-4-yl)pyrazolo[1,5-a]pyridin-2-amine] | 14.9 |
| Cc1onc(OC[C@H]2COCCN2)c1-c1ccn2nc(NC(=O)C3CC3)cc2c1 [Example 496, N-[5-[5-methyl-3-[[(3R)-morpholin-3-yl]methoxy]isoxazol-4-yl]pyrazolo[1,5-a]pyridin-2-yl]cyclopropanecarboxamide] | 995 |
| Cc1cc(Nc2cc3cc(-c4c(OC[C@H]5CCN5C)cnn4C)ccn3n2)nc(NC2CCCC2)n1 [Example 129, N2-cyclopentyl-6-methyl-N4-[5-[2-methyl-4-[[(2R)-1-methylazetidin-2-yl]methoxy]pyrazol-3-yl]pyrazolo[1,5-a]pyridin-2-yl]pyrimidine-2,4-diamine] | < 0.847 |
| Cc1cc(Nc2cc3cc(-c4c(OC[C@@H]5CC6(CCCC6)CO5)cnn4C)ccn3n2)nc(C)n1 (single isomer, unassigned) [Example 443, (*S)—N-(2,6-dimethylpyrimidin-4-yl)-5-[2-methyl-4-(8-oxaspiro[4.4]nonan-7-ylmethoxy)pyrazol-3-yl]pyrazolo[1,5-a]pyridin-2-amine] | 74.3 |
| CN1CC(OCc2cnn(C)c2-c2ccn3nc(NC(=O)C4CC4)cc3c2)C1 [Example 361, N-[5-[2-methyl-4-[(1-methylazetidin-3-yl)oxymethyl]pyrazol-3-yl]pyrazolo[1,5-a]pyridin-2-yl]cyclopropanecarboxamide] | 53.9 |
| Cc1onc(OC[C@]23CN[C@H](CO2)C3)c1-c1ccn2nc(NC(=O)C3CC3)cc2c1 [Example 81, N-[5-[5-methyl-3-[[(1S,4S)-5-oxa-2-azabicyclo[2.2.1]heptan-4-yl]methoxy]isoxazol-4-yl]pyrazolo[1,5-a]pyridin-2-yl]cyclopropanecarboxamide] | 9.7 |
| CNC(=O)c1nc(C)cc(Nc2cc3cc(-c4c(OC[C@H]5CCN5C)cnn4C)ccn3n2)n1 [Example 109, N,4-dimethyl-6-[[5-[2-methyl-4-[[(2R)-1-methylazetidin-2-yl]methoxy]pyrazol-3-yl]pyrazolo[1,5-a]pyridin-2-yl]amino]pyrimidine-2-carboxamide] | 6.2 |

Source: patent US20240174662A1, “SMALL MOLECULE INHIBITORS OF SALT INDUCIBLE KINASES” (Janssen Biotech, Inc., priority 2021, published 2024)
